Like-named read-outs stand apart in the source and are kept apart here.
Experiments:
[1] = tested on: Klebsiella pneumoniae; test: In vivo activity against lethal intraperitoneal Klebsiella pneumoniae infection in mice, single oral or subcutaneous dose; set-up: species or system Klebsiella pneumoniae (infection in Charles River CD-1 mice); conditions: CD-1 mice
Excerpt: Other representative compounds of the present invention were similarly tested against a lethal infection of Klebsiella pneumoniae in mice. Charles River CD-1 mice, each weighing about 20 g, were infected intraperitoneally with a lethal dose of Klebsiella pneumoniae. The median effective doses (ED50) in mg/kg were derived from the pooled data of three separate tests (including two range finding tests). The control, 7β-[2-(2-amino thiazol-4-yl)-(Z)-2-methoximinoacetamido]-3-[(1,2,3-thiadiazol-5-yl)-thiomethyl]ceph-3-em-4-carboxylic acid, provides a basis for comparison. All compounds were administered by single subcutaneous dose and single oral dose.

[2] = tested on: Escherichia coli No. 311; test: In vivo activity against lethal intraperitoneal Escherichia coli No. 311 infection in mice, single oral or subcutaneous dose; set-up: species or system Escherichia coli (infection in Charles River CD-1 mice); conditions: E. coli No. 311, CD-1 mice; for ED50: Escherichia coli, pooled data of three tests (cefaclor: estimated from two separate tests)
Protocol: To establish the pro-drug activity of, for example, the pivaloyloxymethyl ester of 7β-[2-(2-aminothiazol-4-yl)-(Z)-2-methoximinoacetamido]-3-[(1,2,3-thiadiasol-5-yl)-thiomethyl]ceph-3-em-4-carboxylic acid, the unesterified carboxylic acid and cefaclor (as control) were administered by single subcutaneous dose and single oral dose to separate groups of Charles River CD-1 mice, each weighing about 20 g, which mice had been infected intraperitoneally with a lethal dose of Escherichia coli No. 311. The median effective doses (ED50) in mg/kg were derived from the pooled data of three separate tests (including two range finding tests. The results of this testing appear in Table I.

[3] = single oral dose, pooled data of three tests, (95% Conf. Lim.), read-out: ED50, Single Oral Dose
[4] = sc, single subcutaneous dose, pooled data of three tests, (95% Conf. Lim.), read-out: ED50, Single Subcut. Dose
[5] = sc, single subcutaneous dose, read-out: ED50, Single Subcut. Dose
[6] = single oral dose, read-out: ED50, Single Oral Dose

Molecule | Ratio Oral ED50 / Subcutaneous ED50 [1] | ED50 [1, 3] [mg/kg] | ED50 [1, 4] [mg/kg] | Ratio Oral ED50 / Subcutaneous ED50 [2] | ED50 [2, 5] [mg/kg] | ED50 [2, 6] [mg/kg] | ED50, Single Oral Dose ([1]; single oral dose, pooled data of three tests, (95% Conf. Lim.)) [mg/kg] | ED50, Single Subcut. Dose ([1]; single subcutaneous dose, pooled data of three tests, (95% Conf. Lim.)) [mg/kg]
CO/N=C(\C(=O)N[C@@H]1C(=O)N2C(C(=O)OC(C)OC(C)=O)=C(CSc3cnns3)CS[C@H]12)c1csc(N)n1 (stereo partly drawn) [Acetoxyethyl ester, Acetoxyethyl 7β-[2-(2-aminothiazol-4-yl)-(Z)-2-methoximinoacetamido]-3-[(1,2,3-thiadiazol-5-yl)-thiomethyl]ceph-3-em-4-carboxylate] | 2 | 2 to 4 | 1 to 2 |  |  |  |  | 
CO/N=C(\C(=O)N[C@@H]1C(=O)N2C(C(=O)OCOC(C)=O)=C(CSc3cnns3)CS[C@H]12)c1csc(N)n1 [Acetoxymethyl, Acetoxymethyl 7β-[2-(2-aminothiazol-4-yl)-(Z)-2-methoximinoacetamido]-3-[(1,2,3-thiadiazol-5-yl)thiomethyl]ceph-3-em-4-carboxylate] | 8 | 8 to 16 | 1 to 2 |  |  |  |  | 
CO/N=C(\C(=O)N[C@@H]1C(=O)N2C(C(=O)OCOC(=O)C34CC5CC(CC(C5)C3)C4)=C(CSc3cnns3)CS[C@H]12)c1csc(N)n1 [Adamantylcarbonyl-oxymethyl, Adamantane-1-carbonyloxymethyl-7β-[2-(2-aminothiazol-4-yl)-(Z)-2-methoximinoacetamido]-3-[(1,2,3-thiadiazol-5-yl)-thiomethyl]ceph-3-em-4-carboxylate] | 2 | 2 to 4 | 1 to 2 |  |  |  |  | 
N[C@@H](C(=O)N[C@@H]1C(=O)N2C(C(=O)O)=C(Cl)CS[C@H]12)c1ccccc1 [Cefaclor] |  |  |  | 2.8 | 5.7 | 16 |  | 
CCCCCCCCCCOCOC(=O)C1=C(CSc2cnns2)CS[C@@H]2[C@H](NC(=O)/C(=N\OC)c3csc(N)n3)C(=O)N12 [Declyoxymethyl ester, Decyloxymethyl 7β-[2-(2-aminothiazol-4-yl)-(Z)-2-methoximinoacetamido]-3-[(1,2,3-thiadiazol-5-yl)-thiomethyl]ceph-3-em-4-carboxylate] | 4 | 8 to 16 | 2 to 4 |  |  |  |  | 
CCOC(=O)OC(C)OC(=O)C1=C(CSc2cnns2)CS[C@@H]2[C@H](NC(=O)/C(=N\OC)c3csc(N)n3)C(=O)N12 (stereo partly drawn) [Ethoxycarbonyl-Ethoxyethyl ester] | 2 | 1 to 2 | 0.5 to 1 |  |  |  |  | 
COCOC(=O)C1=C(CSc2cnns2)CS[C@@H]2[C@H](NC(=O)/C(=N\OC)c3csc(N)n3)C(=O)N12 [Methoxymethyl ester, Methoxymethyl 7β-[2-(2-aminothiazol-4-yl)-(Z)-2-methoximinoacetamido]-3-[(1,2,3-thiadiazol-5-yl)-thiomethyl]ceph-3-em-4-carboxylate] | 16 | 8 to 16 | 0.5 to 1 |  |  |  |  | 
CCCCCCCCCCCCCC(=O)OCOC(=O)C1=C(CSc2cnns2)CS[C@@H]2[C@H](NC(=O)/C(=N\OC)c3csc(N)n3)C(=O)N12 [Myristoyloxymethyl ester, Myristoyloxymethyl 7β-[2-(2-aminothiazol-4-yl)-(Z)-2-methoximinoacetamido]-3-[(1,2,3-thiadiazol-5-yl)-thiomethyl]ceph-3-em-4-carboxylate] | 16 | 8 to 16 | 0.5 to 1 |  |  |  |  | 
CO/N=C(\C(=O)N[C@@H]1C(=O)N2C(C(=O)OC3OC(=O)c4ccccc43)=C(CSc3cnns3)CS[C@H]12)c1csc(N)n1 (stereo partly drawn) [Phthalidyl ester, Phthalidyl 7β-[2-(2-aminothiazol-4-yl)-(Z)-2-methoximinoacetamido]-3-[(1,2,3-thiadiazol-5-yl)-thiomethyl]ceph-3-em-4-carboxylate] | 16 | 8 to 16 | 0.5 to 1 |  |  |  |  | 
CO/N=C(\C(=O)N[C@@H]1C(=O)N2C(C(=O)OCOC(=O)C(C)(C)C)=C(CSc3cnns3)CS[C@H]12)c1csc(N)n1 [Pivaloyloxymethyl ester, Pivaloyloxymethyl 7β-[2-(2-aminothiazol-4-yl)-(Z)-2-methoximinoacetamido]-3-[(1,2,3-thiadiazol-5-yl)-thiomethyl]ceph-3-em-4-carboxylate] |  |  |  | 3.8 | 0.53 | 2 |  | 
CO/N=C(\C(=O)N[C@@H]1C(=O)N2C(C(=O)O)=C(CSc3cnns3)CS[C@H]12)c1csc(N)n1 [Unesterified acid, 7β-[2-(2-aminothiazol-4-yl)-(Z)-2-methoximinoacetamido]-3-[(1,2,3-thiadiazol-5-yl)-thiomethyl]ceph-3-em-4-carboxylic acid, reference compound] | 16 | 8 to 16 | 0.5 to 1 | 28 | 0.26 | 7.2 |  | 
CO/N=C(\C(=O)N[C@@H]1C(=O)N2C(C(=O)OCOC(=O)c3ccccc3)=C(CSc3cnns3)CS[C@H]12)c1csc(N)n1 [benzoyloxymethyl ester, Benzoyloxymethyl 7β-[2-(2-aminothiazol-4-yl)-(Z)-2-methoximinoacetamido]-3-[(1,2,3-thiadiazol-5-yl)-thiomethyl]ceph-3-em-4-carboxylate] | 2 | 4 to 8 | 2 to 4 |  |  |  |  | 
Methylthiomethyl 7β-[2-(2-aminothiazol-4-yl)-(Z)-2-methoximinoacetamido]-3-[(1,2,3-thiadiazol-5-yl)-thiomethyl]ceph-3-em and ceph-2-em-carboxylate [methylthiomethyl ester] | 4 |  |  |  |  |  | 8 to 16 | 2 to 4
